Patent publication US20230357272A1, “OCTAHYDROPYRAZINODIAZANAPHTHYRIDINE DIONE COMPOUNDS” (MEDSHINE DISCOVERY INC., priority 2020, published 2023)

Key:
MIA-PA-CA-2 cells = test: Anti-proliferation experiment of MIA-PA-CA-2 cells (CellTiter-Glo); type: cell-based; conditions: Homo sapiens, MIA PaCa-2, 72 h, 3 days
Method: DMEM culture medium, fetal bovine serum purchased from Biosera, and horse serum purchased from Gibco. CellTiter-Glo (chemiluminescence detection reagent for cell viability) reagent purchased from Promega. MIA-PA-CA-2 cell line purchased from Nanjing CoBioer Biotechnology Co., Ltd. EnVision multi-label analyzer (PerkinElmer).
MIA-PA-CA-2 cells were seeded in a white 96-well plate with 80 μL of cell suspension per well, which contained 1000 MIA-PA-CA-2 cells. The cell plate was incubated overnight in a carbon dioxide incubator.
(§1) The compounds to be tested were diluted 5-fold with a row gun to the eighth concentration, that is, from 2 mM to 26 nM, and a double-duplication experiment was set up. 78 μL of culture medium was added to a middle plate, and then 2 μL of gradient diluted compound per well was transferred to the middle plate according to the corresponding position. After being thoroughly mixed, 20 μL per well was transferred to the cell plate. The concentration range of the compound transferred to the cell plate was 10 μM to 0.13 nM. The cell plate was placed in the carbon dioxide incubator for 3 days. Another cell plate was prepared, and the signal value was read as the maximum value (Max value in the equation below) on the day of administration to participate in data analysis. 25 μL of cell viability chemiluminescence detection reagent was added to each well of the cell plate, and incubated at room temperature for 10 minutes to stabilize the luminescence signal. A multi-label analyzer was used for reading.
Using the equation (Sample−Min)/(Max−Min)*100% to convert the raw data into inhibition rate, and the value of IC50 might be obtained by curve fitting with four parameters (obtained by “log (inhibitor)/response—Variable scope” mode in GraphPad Prism software). Table 2 provides the inhibitory activity of the compounds of the present disclosure on the proliferation of MIA-PA-CA-2 cells.

NCI-H358 cells = test: Anti-proliferation experiment of H358 cells (CellTiter-Glo); type: cell-based; conditions: Homo sapiens, 120 h, 5 days
Method: RPMI-1640 culture medium, penicillin/streptomycin antibiotics purchased from Wisent, and fetal bovine serum purchased from Biosera. CellTiter-Glo (chemiluminescence detection reagent for cell viability) reagent purchased from Promega. NCI-H358 cell line purchased from the Cell Bank of the Chinese Academy of Sciences. Nivo multi-label analyzer (PerkinElmer).
NCI-H358 cells were seeded in a white 96-well plate with 80 μL of cell suspension per well, which contained 4000 NCI-H358 cells. The cell plate was incubated overnight in a carbon dioxide incubator.
as §1, with “3-fold” for “5-fold”, “ninth” for “eighth”, “304” for “26”, “1.52” for “0.13”, “5” for “3”
25 μL of cell viability chemiluminescence detection reagent was added to each well of the cell plate, and incubated at room temperature for 10 minutes to stabilize the luminescence signal. A multi-label analyzer was used for reading.
Using the equation (Sample−Min)/(Max−Min)*100% to convert the raw data into inhibition rate, and the value of IC50 might be obtained by curve fitting with four parameters (obtained by “log (inhibitor) vs. response—Variable slope” mode in GraphPad Prism). Table 1 provides the inhibitory activity of the compounds of the present disclosure on the proliferation of NCI-H358 cells.

| IC50 (MIA-PA-CA-2 cells) | IC50 (NCI-H358 cells) | SMILES |
| --- | --- | --- |
| 1 nM | 0.9 nM | C=CC(=O)N1CCN2c3c(c(=O)n(-c4c(C(C)C)ncnc4C(C)C)c4c(=O)n(-c5c(N)c(Cl)cc(Cl)c5F)c(C(F)(F)F)cc34)OCC[C@H]2C1 [Compound 4] |
| 5 nM | 4 nM | C=CC(=O)N1CCN2c3c(c(=O)n(-c4c(CC)ncnc4CC)c4c(=O)n(-c5c(N)c(Cl)cc(Cl)c5F)c(C(F)(F)F)cc34)OCC[C@H]2C1 [Compound 5] |
| 4 nM | 2 nM | C=CC(=O)N1CCN2c3c(c(=O)n(-c4c(CC)cncc4CC)c4c(=O)n(-c5c(N)c(Cl)cc(Cl)c5F)c(C(F)(F)F)cc34)OCC[C@H]2C1 [Compound 6] |
